We go through two compounds from patent US20070020747A1, “Composition for eliminating ethidium bromide and use thereof” (priority 2005, published 2007).

Test [1] is described as follows: UV examination of EtBr elimination by oxidants in glass bottles (Example 1). The following applies: for EtBr cleaning effect: oxidant 500 mM, not illuminated with UV; for EtBr cleaning effect / EtBr-eliminating effect (fluorescence): 60 min; for elimination of EtBr in solution (fluorescence): oxidant 20 or 500 mM, illuminated with UV for 60 minutes, groups 1-3. The method, then:
5M lithium nitrate (LiNO3), 5M sodium nitrite (NaNO2), and 5 µg/ml EtBr solutions were prepared.
7 glass bottles (about 7 ml of capacity) were prepared with solutions as described in Table 1. The bottle 1 was added 4 μl LiNO3 and 996 μl EtBr, wherein the final concentration of LiNO3 was 20 mM. The bottle 2 was added 100 μl LiNO3 and 900 μl EtBr, wherein the final concentration of LiNO3 was 500 mM. The bottle 3 was added 4 μl NaNO2 and 996 μl EtBr, wherein the final concentration of NaNO2 was 20 mM. The bottle 4 was added 100 μl NaNO2 and 900 μl EtBr, wherein the final concentration of NaNO2 was 500 mM. The bottle 5 was added 1 ml EtBr only. The bottle 6 was added 100 μl LiNO3 and 900 μl EtBr. The bottle 7 was added 100 μl NaNO2 and 900 μl EtBr.
The bottles 1-5 were illuminated with ultraviolet, which was 8 W and the wavelength was 180-280 nm. The samples were collected in the time point 0 and 60 minutes. The bottles 6 and 7 were not illuminated with ultraviolet and the samples were collected in the time point 60 minutes.
Except the wavelength of UV was changed to 280˜320 nm, all conditions were identical to group 1.
Except the wavelength of UV was changed to 320˜380 nm, all conditions were identical to group 1.
Each sample was collected 25 μl from the experimental bottle in the selected time point. There were 12 samples for each group, total 36 samples. These samples were dropped on the center of a filter paper (diameter 2.5 cm) and illuminated with UV to observe the elimination of EtBr.

The nature of test [2]: UV examination of EtBr elimination by oxidants in beakers under a four-tube UV lid (Example 2). The following applies: oxidant 50 mM. As for the experimental part:
The appearance of the light source was a rectangular lid and the size was 35 cm×21 cm×15 cm. Four parallel 8 W UV tubes were implanted on the top of the lid.
5 beakers were prepared. Beaker 1 and 2 were added 100 μl LiNO3 and 9.9 ml EtBr, so that the final concentration of LiNO3 was 50 mM. Beaker 3 and 4 were added 100 μl NaNO2 and 9.9 ml EtBr, so that the final concentration of NaNO2 was 50 mM. Beaker 5 was added 10 ml EtBr only. The beakers 1, 3 and 5 were illuminated with UV, and the samples were collected in the time points 0, 15, 30, 60 and 120 minutes. The beakers 2 and 4 were not illuminated with UV, and the samples were collected in the time point 120 minutes.
Each sample was collected 25 μl from the experimental beaker in the selected time point. There were 17 samples totally. These samples were dropped on the center of a filter paper (diameter 2.5 cm) and illuminated with UV to observe the elimination of EtBr.

Where [3] appears, read: oxidant plus UV with wavelength 180~280 nm, 8 W.
[4] abbreviates: oxidant plus UV with wavelength 320~380 nm.
Setting [5] is: oxidant plus UV, second wavelength printed as 180~280 nm (group 2: 280~320 nm).
Where [6] appears, read: after 60 minutes of UV illumination.
Setting [7] is: after illuminating with UV for 15 minutes.

As for `O=[N+]([O-])[O-].[Li+]` [lithium nitrate], in test [1], the EtBr cleaning effect result is given as “no or insignificant EtBr cleaning effect”. Also, the “elimination of EtBr in solution (fluorescence)” value in test [1] is “completely destroyed”. Further, the “EtBr-eliminating effect (fluorescence)” value was “strongest effect” in test [1] (setting [3]), “less effective” in test [1] (setting [4]) and “modest effect” in test [1] (setting [5]). Moreover, the “destruction of EtBr (fluorescence)” value in test [2] (setting [6]) is given as “almost all of EtBr in the samples were destroyed”; in test [2] (setting [7]), “most EtBr”; in test [2] (no UV illumination, 120 min) it was “not destroyed (or insignificantly destroyed)”.

On to `O=NO` [sodium nitrite], for which, in test [1], the EtBr cleaning effect entry was “no or insignificant EtBr cleaning effect”. The “elimination of EtBr in solution (fluorescence)” value in test [1] is “completely destroyed”. In addition, the “EtBr-eliminating effect (fluorescence)” value in test [1] (setting [3]) is listed as “strongest effect”; in test [1] (setting [4]), “less effective”; in test [1] (setting [5]) it was “modest effect”. Moreover, the “destruction of EtBr (fluorescence)” value in test [2] (setting [6]) is listed as “almost all of EtBr in the samples were destroyed”; in test [2] (setting [7]), “most EtBr”; in test [2] (no UV illumination, 120 min), “not destroyed (or insignificantly destroyed)”.
